Source: ChEMBL document CHEMBL4483862, “Open-source discovery of chemical leads for next-generation chemoprotective antimalarials” (2018)

Tested on: Plasmodium berghei
Assay: Luciferase/luciferin-expressing antifolate-resistant parasites were used to infect a culture of HepG2 cells that were pre-incubated with compounds. Infected hepatocytes emit light due to the luciferase reaction. Assay results are presented as the percent inhibition of light emission compared to control. […]
Type: functional
Details: sporozoite; for IC90: read-out: LUCIFERASE INFECTION ASSAY - IC90
[1] = read-out: LUCIFERASE INFECTION ASSAY - IC50

| Compound | IC90 [µM] | other results |
| --- | --- | --- |
| Cc1nc(NC(=O)c2ccc(C(C)(C)C)cc2)ccc1Br | > 9.5 | IC50 (PBLUC_HILL_SLOPE 8.59, PBLUC_R_SQUARED 0.6, read-out: LUCIFERASE INFECTION ASSAY - IC50): 7.43 µM |
| N=C(N)N/N=C\c1cccc2ccccc12 | > 15.5 | IC50 (PBLUC_HILL_SLOPE 1.61, PBLUC_R_SQUARED 0.436, read-out: LUCIFERASE INFECTION ASSAY - IC50): 6.92 µM |
| Cc1ccc(C(CN2CCOCC2)NC(=O)c2occc2-c2ccccc2)cc1 (stereo unspecified) | > 10 | IC50 (HEPG2TOX_HILL_SLOPE 140, HEPG2TOX_R_SQUARED 0.302, PBLUC_HILL_SLOPE 0.784, PBLUC_R_SQUARED 0.306, read-out: LUCIFERASE INFECTION ASSAY - IC50): 8.27 µM |
| Cc1oc2cc(OC(C)C(=O)Nc3cccc([N+](=O)[O-])c3)ccc2c(=O)c1-c1ccccc1 (stereo unspecified) | > 10 | IC50 [1]: 8.01 µM |
| OC(COc1ccc(OC(F)(F)F)cc1)CN1CCN(c2nc3ccc(Cl)cc3s2)CC1 (stereo unspecified) | > 6.76 | IC50 (HEPG2TOX_HILL_SLOPE 3.53, HEPG2TOX_R_SQUARED 0.823, PBLUC_HILL_SLOPE 2.94, PBLUC_R_SQUARED 0.35, read-out: LUCIFERASE INFECTION ASSAY - IC50): 4.19 µM |
| CC(C)NC(=O)N1CCCC(C(=O)Nc2nc3ccccc3[nH]2)C1 (stereo unspecified) | 4 | IC50 (FFLUC_HILL_SLOPE 4.02, FFLUC_R_SQUARED 0.256, PBLUC_HILL_SLOPE 1.51, PBLUC_R_SQUARED 0.42, read-out: LUCIFERASE INFECTION ASSAY - IC50): 0.935 µM |
| Clc1ccccc1-c1nc2ccnc(NCc3ccccc3)c2[nH]1 | 4.04 | IC50 (HEPG2TOX_HILL_SLOPE 1.64, HEPG2TOX_R_SQUARED 0.835, PBLUC_HILL_SLOPE 9.56, PBLUC_R_SQUARED 0.749, read-out: LUCIFERASE INFECTION ASSAY - IC50): 3.21 µM |
| COc1ccc(S(=O)(=O)N(CC(=O)c2cc(C)n(-c3ccc(Cl)cc3)c2C)Cc2ccccc2)cc1 | > 10 | IC50 [1]: > 10 µM |
| O=C(Nc1cccnc1-n1cccn1)c1csc(-c2ccc(Cl)cc2)n1 | > 2 | IC50 [1]: > 2 µM |
| Cc1cc(C(=O)OCC(=O)NC2CCCCCCC2)c(C)n1-c1ccccc1 | > 10 | IC50 [1]: > 10 µM |
| N#CC(C#N)=NNc1ccc(F)c(F)c1F | 14.5 | IC50 (PBLUC_HILL_SLOPE 9.99, PBLUC_R_SQUARED 0.46, read-out: LUCIFERASE INFECTION ASSAY - IC50): 11.6 µM |
| COc1ccc(-c2cnc3c(NC(C)=O)cc(-c4ccc5[nH]ccc5c4)cn23)cc1OC | > 7.74 | IC50 [1]: > 7.74 µM |
| CCOc1ccc(CN2CCN(C(=O)Cc3c(C)nn(C)c3C)CC2)cc1 | > 10 | IC50 (PBLUC_HILL_SLOPE 2.6, PBLUC_R_SQUARED 0.21, read-out: LUCIFERASE INFECTION ASSAY - IC50): > 10 µM |
| NS(=O)(=O)c1ccc(CNc2ccc3ncc(-c4ccc(Cl)cc4)n3n2)cc1 | 1.19 | IC50 (HEPG2TOX_HILL_SLOPE 1.64, HEPG2TOX_R_SQUARED 0.894, PBLUC_HILL_SLOPE 9.33, PBLUC_R_SQUARED 0.776, read-out: LUCIFERASE INFECTION ASSAY - IC50): 0.942 µM |
| CC(C)NC(=O)c1c(NC(=O)c2ccc(Cl)cc2)nc2ccccn12 | 1.07 | IC50 (HEPG2TOX_HILL_SLOPE 2.11, HEPG2TOX_R_SQUARED 0.869, PBLUC_HILL_SLOPE 50.8, PBLUC_R_SQUARED 0.665, read-out: LUCIFERASE INFECTION ASSAY - IC50): 1.02 µM |
| CNC(=O)c1csc(C(O)c2cccc(C(F)(F)F)c2)n1 (stereo unspecified) | 3.81 | IC50 (HEPG2TOX_HILL_SLOPE 1.87, HEPG2TOX_R_SQUARED 0.885, PBLUC_HILL_SLOPE 18.2, PBLUC_R_SQUARED 0.279, read-out: LUCIFERASE INFECTION ASSAY - IC50): 3.38 µM |
| CCn1c2ccccc2c2cc(NC(C)C(=O)N3CCNC3=O)ccc21 (stereo unspecified) | 4.48 | IC50 (PBLUC_HILL_SLOPE 2.83, PBLUC_R_SQUARED 0.574, read-out: LUCIFERASE INFECTION ASSAY - IC50): 2.06 µM |
| Fc1ccc(Nc2nccc3nc(-c4ccccc4Cl)[nH]c23)cc1Cl | > 10 | IC50 (HEPG2TOX_HILL_SLOPE 6.23, HEPG2TOX_R_SQUARED 0.841, PBLUC_HILL_SLOPE 1.89, PBLUC_R_SQUARED 0.243, read-out: LUCIFERASE INFECTION ASSAY - IC50): 5.64 µM |
| O=C(c1oc2ccccc2c1CSc1ccc(Cl)cc1)N1CCCS/C1=N\c1ccccc1 | > 10 | IC50 (FFLUC_HILL_SLOPE 3.49, FFLUC_R_SQUARED 0.279, read-out: LUCIFERASE INFECTION ASSAY - IC50): > 10 µM |

| Compound | IC90 [µM] | other results |
| --- | --- | --- |
| CC(=O)c1cc2c(N)c(-c3nc(C(C)(C)C)no3)sc2nc1C | 3.91 | IC50 (PBLUC_HILL_SLOPE 13.1, PBLUC_R_SQUARED 0.312, read-out: LUCIFERASE INFECTION ASSAY - IC50): 3.31 µM |
| O=C(Cn1c(CN2CCCCC2)nc2ccccc2c1=O)Nc1ccccc1Oc1ccccc1 | > 10 | IC50 [1]: > 10 µM |
| CCN(CC)S(=O)(=O)c1cc(C(=O)c2c(-c3ccc(Cl)cc3)cc3ccccn23)ccc1F | > 10 | IC50 (HEPG2TOX_HILL_SLOPE 0.422, HEPG2TOX_R_SQUARED 0.219, read-out: LUCIFERASE INFECTION ASSAY - IC50): > 10 µM |
| Cc1ccc(NC(=O)Nc2ccc3nc(-c4ccsc4)nn3c2)cc1 | > 10 | IC50 (PBLUC_HILL_SLOPE 7.59, PBLUC_R_SQUARED 0.413, read-out: LUCIFERASE INFECTION ASSAY - IC50): 8.75 µM |
| O=C(Nc1ccc(Br)c(C(F)(F)F)c1)c1ccc(N2CCOCC2)nc1 | > 10 | IC50 (HEPG2TOX_HILL_SLOPE 0.861, HEPG2TOX_R_SQUARED 0.877, PBLUC_HILL_SLOPE 1.11, PBLUC_R_SQUARED 0.718, read-out: LUCIFERASE INFECTION ASSAY - IC50): 1.48 µM |
| Cc1cc(OCCCC(=O)NC2CCN(Cc3ccccc3)CC2)ccc1Cl | > 10 | IC50 (PBLUC_HILL_SLOPE 3.22, PBLUC_R_SQUARED 0.455, read-out: LUCIFERASE INFECTION ASSAY - IC50): 5.35 µM |
| NC(=O)C(C(=O)/C=C/c1ccc(Cl)cc1)=C1SCCS1 | 7.51 | IC50 (HEPG2TOX_HILL_SLOPE 2.58, HEPG2TOX_R_SQUARED 0.837, PBLUC_HILL_SLOPE 4.23, PBLUC_R_SQUARED 0.508, read-out: LUCIFERASE INFECTION ASSAY - IC50): 4.47 µM |
| COc1ccccc1/C=C(/C(=O)OC(C(=O)c1c[nH]c2ccccc12)c1ccccc1)c1ccccc1 (stereo unspecified) | > 10 | IC50 (FFLUC_HILL_SLOPE 11.3, FFLUC_R_SQUARED 0.353, PBLUC_HILL_SLOPE 1.04, PBLUC_R_SQUARED 0.705, read-out: LUCIFERASE INFECTION ASSAY - IC50): 3.6 µM |
| c1ccc(-c2cc(N3CCCCC3)c3ccccc3n2)nc1 | > 11.4 | IC50 (PBLUC_HILL_SLOPE 9.83, PBLUC_R_SQUARED 0.0291, read-out: LUCIFERASE INFECTION ASSAY - IC50): 10.3 µM |
| Cc1noc2nc(C3CC3)cc(C(=O)Nc3cccc(C(F)(F)F)c3)c12 | 1.12 | IC50 (PBLUC_HILL_SLOPE 17.7, PBLUC_R_SQUARED 0.604, read-out: LUCIFERASE INFECTION ASSAY - IC50): 0.99 µM |
| Cc1ccc(O)c(C(=O)NCCc2ccc3c(c2)OCCO3)c1 | 7.45 | IC50 (HEPG2TOX_HILL_SLOPE 15.5, HEPG2TOX_R_SQUARED 0.566, PBLUC_HILL_SLOPE 1.92, PBLUC_R_SQUARED 0.779, read-out: LUCIFERASE INFECTION ASSAY - IC50): 2.37 µM |
| COC(=O)c1c(NC(=O)C2CCOC2)c2cc(NCC(C)(C)C)cnc2n1CCc1c[nH]c2ccccc12 (stereo unspecified) | > 6.38 | IC50 (PBLUC_HILL_SLOPE 3.23, PBLUC_R_SQUARED 0.492, read-out: LUCIFERASE INFECTION ASSAY - IC50): 4.09 µM |
| COCC(C)Nc1ncnc2scc(-c3ccc(OC)cc3)c12 (stereo unspecified) | 4.03 | IC50 (HEPG2TOX_HILL_SLOPE 7.42, HEPG2TOX_R_SQUARED 0.779, PBLUC_HILL_SLOPE 12.3, PBLUC_R_SQUARED 0.781, read-out: LUCIFERASE INFECTION ASSAY - IC50): 3.37 µM |
| CCS(=O)(=O)N1Cc2ccccc2CC1C(=O)Nc1nc2ccc(F)cc2s1 (stereo unspecified) | > 10 | IC50 (PBLUC_HILL_SLOPE 0.63, PBLUC_R_SQUARED 0.752, read-out: LUCIFERASE INFECTION ASSAY - IC50): 2.29 µM |
| Cc1noc(C)c1COc1cccc(C(=O)OCC(=O)N2CC(=O)Nc3ccccc32)c1 | > 10 | IC50 (HEPG2TOX_HILL_SLOPE 1.25, HEPG2TOX_R_SQUARED 0.939, PBLUC_HILL_SLOPE 2.73, PBLUC_R_SQUARED 0.35, read-out: LUCIFERASE INFECTION ASSAY - IC50): 6.68 µM |
| COc1ccc(CNC(=O)CCOc2ccc(C(C)(C)C)cc2)cc1OC | > 10 | IC50 (HEPG2TOX_HILL_SLOPE 0.891, HEPG2TOX_R_SQUARED 0.4, PBLUC_HILL_SLOPE 0.658, PBLUC_R_SQUARED 0.48, read-out: LUCIFERASE INFECTION ASSAY - IC50): 4.6 µM |
| Cc1c(S(=O)(=O)c2ccc(Cl)cc2)csc1C(=O)Nc1cc(C(F)(F)F)cc(C(F)(F)F)c1 | > 6.25 | IC50 (FFLUC_HILL_SLOPE 11.9, FFLUC_R_SQUARED 0.653, HEPG2TOX_HILL_SLOPE 12.6, HEPG2TOX_R_SQUARED 0.751, PBLUC_HILL_SLOPE 2.69, PBLUC_R_SQUARED 0.583, read-out: LUCIFERASE INFECTION ASSAY - IC50): 3.24 µM |
| CN(CC(=O)Nc1ccc(F)c(F)c1F)C(C(=O)Nc1ccc(Cl)c(C(F)(F)F)c1)c1ccccc1 (stereo unspecified) | > 10 | IC50 [1]: 6.74 µM |
| CCN(CC)S(=O)(=O)c1ccc(Cl)c(NC(=O)COC(=O)c2c3c(nc4ccccc24)CCC(C)C3)c1 (stereo unspecified) | 4.21 | IC50 (HEPG2TOX_HILL_SLOPE 20.1, HEPG2TOX_R_SQUARED 0.334, PBLUC_HILL_SLOPE 11.1, PBLUC_R_SQUARED 0.597, read-out: LUCIFERASE INFECTION ASSAY - IC50): 3.46 µM |
